Measured values published in PubChem BioAssay (NCI).
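Where inhibition never reached the appropriate level, the endpoint shown equals the highest concentration tested. Otherwise, values were interpolated linearly from a five-concentration, 48-hour dose response in 96-well plates. Here, GI50 denotes the concentration required for 50% inhibition of growth. TGI denotes the concentration required for complete inhibition of growth.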

Key:
Experiment in all cases: growth of human tumour cells (NCI), 48 h; in the data active means GI50 below about 0.43 µM; inactive means the rest
[1] = system: MOLT-4 leukemia
[2] = system: MDA-MB-231 breast
[3] = system: DU-145 prostate
[4] = system: HT29 colon
[5] = system: OVCAR-8 ovarian
[6] = system: IGROV1 ovarian
[7] = system: SNB-75 CNS
[8] = system: PC-3 prostate
[9] = system: SN12C renal
[10] = system: SK-OV-3 ovarian
[11] = system: RPMI-8226 leukemia
[12] = system: UACC-62 melanoma
[13] = system: SF-268 CNS
[14] = system: KM12 colon
[15] = system: SF-295 CNS
[16] = system: TK-10 renal
[17] = system: NCI-H23 lung
[18] = system: MALME-3M melanoma
[19] = system: HCT-15 colon
[20] = system: SW-620 colon
[21] = system: RXF 393 renal
[22] = system: COLO 205 colon
[23] = system: SR leukemia
[24] = system: M14 melanoma
[25] = system: 786-0 renal
[26] = system: CAKI-1 renal
[27] = system: LOX IMVI melanoma
[28] = system: MCF7 breast
[29] = system: SK-MEL-28 melanoma
[30] = system: HOP-62 NSCLC
[31] = system: A549 NSCLC
[32] = system: K-562 leukemia
[33] = system: EKVX NSCLC
[34] = system: T-47D breast
[35] = system: MDA-N
[36] = system: HL-60(TB) leukemia
[37] = system: CCRF-CEM leukemia
[38] = system: SK-MEL-5 melanoma
[39] = system: HCC-2998 colon
[40] = system: UACC-257 melanoma
[41] = system: OVCAR-3 ovarian
[42] = system: SNB-19 CNS
[43] = system: HCT-116 colon
[44] = system: NCI-H522 lung
[45] = system: MDA-MB-435
[46] = system: BT-549 breast
[47] = system: OVCAR-5 ovarian
[48] = system: A498 renal
[49] = system: SK-MEL-2 melanoma
[50] = system: HS 578T breast
[51] = system: NCI-H460 lung
[52] = system: OVCAR-4 ovarian
[53] = system: NCI/ADR-RES ovarian
[54] = system: UO-31 renal
[55] = system: NCI-H226 lung
[56] = system: ACHN renal
[57] = system: HOP-92 NSCLC
[58] = system: SF-539 CNS
[59] = system: U251 CNS

CN1CCN(c2cc3nsnc3c3nsnc23)CC1
> 10 µM: TGI [1] | TGI [2] | TGI [3] | TGI [4] | TGI [5] | TGI [6] | TGI [7] | TGI [8] | TGI [9] | TGI [10] | TGI [11] | TGI [12] | TGI [13] | TGI [14] | TGI [15] | TGI [16] | TGI [17] | TGI [18] | TGI [19] | TGI [20] | TGI [21] | TGI [22] | TGI [23] | TGI [24] | TGI [25] | TGI [26] | TGI [27] | TGI [28] | TGI [29] | TGI [30] | TGI [31] | TGI [32] | TGI [33] | TGI [34] | TGI [35] | TGI [36] | TGI [37] | TGI [38] | TGI [39] | TGI [40]

Nc1nn2c(=O)c3ccccc3nc2s1
> 100 µM: TGI [41] | TGI [3] | TGI [4] | TGI [42] | TGI [43] | TGI [5] | TGI [6] | TGI [7] | TGI [8] | TGI [9] | TGI [10] | TGI [45] | TGI [11] | TGI [12] | TGI [13] | TGI [47] | TGI [14] | TGI [48] | TGI [49] | TGI [15] | TGI [16] | TGI [50] | TGI [51] | TGI [17] | TGI [52] | TGI [53] | TGI [19] | TGI [54] | TGI [21] | TGI [22] | TGI [56] | TGI [57] | TGI [25] | TGI [26] | TGI [28] | TGI [29] | TGI [30] | TGI [31] | TGI [58] | TGI [33] | TGI [34] | TGI [35] | TGI [38] | TGI [39] | TGI [40] | TGI [59]
44.7 µM: TGI [23] | TGI [27]
93.8 µM: TGI [24]
77.9 µM: TGI [46]
88.7 µM: TGI [32]
38.5 µM: TGI [20]
53.1 µM: TGI [1]
50.3 µM: TGI [44]
46.9 µM: TGI [37]
91.1 µM: TGI [55]

CCNC(=O)c1noc(-c2cc(C(C)C)c(O)cc2O)c1-c1ccc(CN2CCOCC2)cc1
23.9 µM: TGI [20]
11.2 µM: TGI [15]
19.5 µM: TGI [45]
0.0765 µM: TGI [27]
26.6 µM: TGI [55]
1.05 µM: TGI [39]
active: GI50 [1] 0.0326 µM | GI50 [41] 0.0529 µM | GI50 [2] 0.0747 µM | GI50 [3] < 0.0222 µM | GI50 [4] 0.0343 µM | GI50 [42] 0.0762 µM | GI50 [43] 0.0313 µM | GI50 [5] 0.0423 µM | GI50 [44] 0.0333 µM | GI50 [6] < 0.0224 µM | GI50 [8] 0.0648 µM | GI50 [9] 0.0707 µM | GI50 [10] < 0.01 µM | GI50 [45] < 0.0167 µM | GI50 [11] 0.0428 µM | GI50 [12] 0.0333 µM | GI50 [47] 0.0631 µM | GI50 [14] 0.0203 µM | GI50 [48] 0.0418 µM | GI50 [49] 0.0311 µM | GI50 [15] 0.0287 µM | GI50 [16] 0.0233 µM | GI50 [51] < 0.0152 µM | GI50 [17] 0.0535 µM | GI50 [18] 0.025 µM | GI50 [53] 0.313 µM | GI50 [19] 0.0388 µM | GI50 [54] 0.0457 µM | GI50 [20] < 0.01 µM | GI50 [21] 0.0257 µM | GI50 [55] 0.0409 µM | GI50 [22] 0.0787 µM | GI50 [56] 0.0373 µM | GI50 [57] 0.0252 µM | GI50 [23] 0.0407 µM | GI50 [24] 0.0384 µM | GI50 [26] 0.059 µM | GI50 [27] 0.0159 µM | GI50 [28] < 0.0194 µM | GI50 [29] 0.055 µM | GI50 [30] 0.0532 µM | GI50 [31] 0.0221 µM | GI50 [58] 0.0662 µM | GI50 [32] < 0.0172 µM | GI50 [34] 0.0382 µM | GI50 [36] 0.024 µM | GI50 [37] 0.0321 µM | GI50 [38] 0.047 µM | GI50 [39] 0.0267 µM | GI50 [40] 0.0259 µM | GI50 [59] < 0.0131 µM
55.8 µM: TGI [7]
14.2 µM: TGI [38]
66.6 µM: TGI [8]
0.0741 µM: TGI [14]
29.4 µM: TGI [30]
18.6 µM: TGI [24]
1.17 µM: TGI [36]
29 µM: TGI [23]
17.8 µM: TGI [21]
2.09 µM: TGI [4]
0.0738 µM: TGI [57]
8.74 µM: TGI [49]
28.9 µM: TGI [5]
14.6 µM: TGI [51]
34.9 µM: TGI [13]
inactive: GI50 [7] 4.51 µM | GI50 [46] 8.36 µM | GI50 [13] 2.44 µM | GI50 [50] 2.47 µM | GI50 [52] 10.9 µM | GI50 [25] 1.98 µM | GI50 [33] 5.21 µM
29.3 µM: TGI [47]
30.4 µM: TGI [46]
22.3 µM: TGI [10]
23.1 µM: TGI [11]
17.5 µM: TGI [48]
26.3 µM: TGI [58]
0.159 µM: TGI [40]
21.1 µM: TGI [3]
13.6 µM: TGI [44]
27.2 µM: TGI [17]
19.9 µM: TGI [19]
14.8 µM: TGI [16]
> 55 µM: TGI [28]
15.5 µM: TGI [43] | TGI [59]
19.1 µM: TGI [41]
4.92 µM: TGI [12]
12.1 µM: TGI [18]
31.5 µM: TGI [25]
> 100 µM: TGI [1] | TGI [42] | TGI [6] | TGI [9] | TGI [52] | TGI [54] | TGI [56] | TGI [26] | TGI [33]
22.7 µM: TGI [29] | TGI [31]
5.64 µM: TGI [22]
44.1 µM: TGI [53]
> 75.4 µM: TGI [37]
> 46.3 µM: TGI [32]
47.8 µM: TGI [34]
15.7 µM: TGI [2]
56.9 µM: TGI [50]
